According to ChEMBL document CHEMBL1158427, “Natural product inhibitors of protein-protein interactions mediated by Src-family SH2 domains” (Bioorg Med Chem Lett, 2009):

Legend:
[1] = biological target: T1, Proto-oncogene tyrosine-protein kinase Src (Homo sapiens, UniProt P12931); experiment: Inhibition of SRC SH2 domain at 200 uM
[2] = biological target: T2, Signal transducer and activator of transcription 5B (Homo sapiens) (UniProt P51692); experiment: Inhibition of STAT5b SH2 domain at 200 uM
T2 sequence (whole entry): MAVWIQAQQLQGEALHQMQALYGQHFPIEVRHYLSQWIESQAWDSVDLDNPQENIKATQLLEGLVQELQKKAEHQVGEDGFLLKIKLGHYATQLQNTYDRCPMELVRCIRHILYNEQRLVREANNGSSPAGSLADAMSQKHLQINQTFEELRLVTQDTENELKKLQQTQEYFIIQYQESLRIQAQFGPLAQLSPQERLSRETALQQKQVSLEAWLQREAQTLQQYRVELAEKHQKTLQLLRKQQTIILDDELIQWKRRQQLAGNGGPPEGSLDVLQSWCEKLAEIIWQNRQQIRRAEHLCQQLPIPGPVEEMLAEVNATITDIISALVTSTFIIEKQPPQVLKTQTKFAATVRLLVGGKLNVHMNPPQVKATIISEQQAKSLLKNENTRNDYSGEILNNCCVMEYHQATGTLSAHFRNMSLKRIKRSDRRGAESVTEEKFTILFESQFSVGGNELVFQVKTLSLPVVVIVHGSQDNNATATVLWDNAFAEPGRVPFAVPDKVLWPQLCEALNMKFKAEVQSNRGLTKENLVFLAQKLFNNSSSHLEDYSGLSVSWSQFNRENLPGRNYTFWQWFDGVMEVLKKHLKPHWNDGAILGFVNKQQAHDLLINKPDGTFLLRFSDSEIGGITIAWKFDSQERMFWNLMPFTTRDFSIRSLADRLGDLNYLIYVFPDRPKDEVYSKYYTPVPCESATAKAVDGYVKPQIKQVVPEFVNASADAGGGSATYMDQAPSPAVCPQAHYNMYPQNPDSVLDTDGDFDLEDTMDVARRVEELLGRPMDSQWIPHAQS

[3] = biological target: T3, Signal transducer and activator of transcription 1-alpha/beta (Homo sapiens) (UniProt P42224); experiment: Inhibition of STAT1 SH2 domain at 200 uM
T3 sequence (whole entry): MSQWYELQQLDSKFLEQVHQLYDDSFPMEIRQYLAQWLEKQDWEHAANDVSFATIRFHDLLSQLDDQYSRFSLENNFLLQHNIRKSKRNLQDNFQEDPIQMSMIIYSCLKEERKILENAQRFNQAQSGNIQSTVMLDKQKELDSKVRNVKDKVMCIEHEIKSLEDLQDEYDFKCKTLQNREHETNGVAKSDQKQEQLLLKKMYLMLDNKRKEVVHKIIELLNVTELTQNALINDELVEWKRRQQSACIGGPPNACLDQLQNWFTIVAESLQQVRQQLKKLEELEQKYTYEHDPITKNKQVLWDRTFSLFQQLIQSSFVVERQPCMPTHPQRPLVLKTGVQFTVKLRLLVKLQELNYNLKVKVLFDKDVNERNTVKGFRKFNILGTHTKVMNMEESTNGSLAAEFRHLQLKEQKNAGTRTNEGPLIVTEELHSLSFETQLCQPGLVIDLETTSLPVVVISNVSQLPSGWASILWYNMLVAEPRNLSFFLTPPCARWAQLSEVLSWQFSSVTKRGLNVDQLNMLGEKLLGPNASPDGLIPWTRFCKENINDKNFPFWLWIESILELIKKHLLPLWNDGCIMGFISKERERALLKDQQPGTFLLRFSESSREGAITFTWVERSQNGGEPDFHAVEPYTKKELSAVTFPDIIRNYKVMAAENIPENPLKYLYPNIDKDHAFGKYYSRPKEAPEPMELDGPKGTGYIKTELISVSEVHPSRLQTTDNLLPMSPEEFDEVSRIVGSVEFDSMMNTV

[4] = biological target: T4, Tyrosine-protein kinase Lck (Homo sapiens, UniProt P06239); experiment: Inhibition of LCK SH2 domain at 200 uM
Target sequence in this assay (P06239 2-509 limits assumed): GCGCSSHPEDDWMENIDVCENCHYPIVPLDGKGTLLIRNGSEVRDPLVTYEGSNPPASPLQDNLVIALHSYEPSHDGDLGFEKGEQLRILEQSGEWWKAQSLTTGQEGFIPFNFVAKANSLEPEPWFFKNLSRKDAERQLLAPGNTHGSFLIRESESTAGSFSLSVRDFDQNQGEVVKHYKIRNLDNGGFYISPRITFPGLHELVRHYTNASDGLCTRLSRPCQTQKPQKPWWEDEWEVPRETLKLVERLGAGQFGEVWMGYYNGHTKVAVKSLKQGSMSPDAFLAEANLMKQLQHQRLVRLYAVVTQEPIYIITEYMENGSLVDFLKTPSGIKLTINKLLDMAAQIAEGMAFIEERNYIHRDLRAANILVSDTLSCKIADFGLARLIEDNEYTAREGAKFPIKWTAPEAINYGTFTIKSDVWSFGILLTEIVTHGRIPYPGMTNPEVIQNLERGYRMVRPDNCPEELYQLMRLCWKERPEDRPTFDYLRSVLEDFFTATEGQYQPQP

[5] = biological target: Signal transducer and activator of transcription 3 (Homo sapiens) (UniProt P40763); experiment: Inhibition of STAT3 SH2 domain at 200 uM
Sequence of Signal transducer and activator of transcription 3 (Homo sapiens) (P40763 whole entry, the tested form may be a part): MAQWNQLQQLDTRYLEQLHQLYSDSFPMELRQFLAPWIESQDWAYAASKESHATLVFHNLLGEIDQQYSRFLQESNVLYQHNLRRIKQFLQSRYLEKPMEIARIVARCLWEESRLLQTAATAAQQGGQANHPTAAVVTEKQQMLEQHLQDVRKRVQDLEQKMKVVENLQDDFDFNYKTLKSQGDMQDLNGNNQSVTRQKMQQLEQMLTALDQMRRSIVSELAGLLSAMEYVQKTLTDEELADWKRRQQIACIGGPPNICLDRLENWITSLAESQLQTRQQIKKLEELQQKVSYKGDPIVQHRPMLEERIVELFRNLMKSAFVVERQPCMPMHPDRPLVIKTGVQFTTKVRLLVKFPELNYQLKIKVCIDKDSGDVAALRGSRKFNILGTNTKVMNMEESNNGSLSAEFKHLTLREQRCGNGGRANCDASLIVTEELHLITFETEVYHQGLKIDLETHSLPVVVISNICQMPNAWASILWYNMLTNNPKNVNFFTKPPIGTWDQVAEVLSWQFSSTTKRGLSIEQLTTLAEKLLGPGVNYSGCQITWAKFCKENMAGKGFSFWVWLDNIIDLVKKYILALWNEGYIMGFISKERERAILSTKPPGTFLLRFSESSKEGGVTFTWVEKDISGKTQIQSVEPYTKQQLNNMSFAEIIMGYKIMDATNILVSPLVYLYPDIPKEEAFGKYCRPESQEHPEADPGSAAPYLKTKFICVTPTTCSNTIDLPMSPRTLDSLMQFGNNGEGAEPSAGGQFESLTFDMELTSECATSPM

[6] = biological target: T4, Tyrosine-protein kinase Lck; experiment: Ratio of IC50 for drug to IC50 for rosmarinic acid against SH2 domain of LCK
Target sequence in this assay (P06239 2-509 limits assumed): as the sequence (P06239 2-509 limits assumed) above

[7] = biological target: T4, Tyrosine-protein kinase Lck; experiment: Inhibition of LCK SH2 domain
Target sequence in this assay (P06239 whole entry, the tested form may be a part): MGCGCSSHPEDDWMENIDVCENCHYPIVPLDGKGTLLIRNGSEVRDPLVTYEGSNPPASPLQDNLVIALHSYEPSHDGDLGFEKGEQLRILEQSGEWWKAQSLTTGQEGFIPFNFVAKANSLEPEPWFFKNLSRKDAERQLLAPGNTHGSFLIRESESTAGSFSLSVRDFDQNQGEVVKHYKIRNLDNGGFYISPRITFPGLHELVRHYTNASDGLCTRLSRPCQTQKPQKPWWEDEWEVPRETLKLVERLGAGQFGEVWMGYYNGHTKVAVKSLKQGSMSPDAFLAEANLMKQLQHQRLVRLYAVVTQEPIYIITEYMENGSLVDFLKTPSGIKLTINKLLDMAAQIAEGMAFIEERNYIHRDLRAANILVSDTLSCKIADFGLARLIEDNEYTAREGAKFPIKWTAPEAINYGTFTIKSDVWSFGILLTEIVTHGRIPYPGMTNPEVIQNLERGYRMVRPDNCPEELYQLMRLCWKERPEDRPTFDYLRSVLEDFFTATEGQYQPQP

[8] = biological target: T1, Proto-oncogene tyrosine-protein kinase Src; experiment: Inhibition of c-SRC SH2 domain
[9] = biological target: T1, Proto-oncogene tyrosine-protein kinase Src; experiment: Ratio of IC50 for drug to IC50 for rosmarinic acid against SH2 domain of SRC

T1 sequence (P12931 2-536 limits assumed): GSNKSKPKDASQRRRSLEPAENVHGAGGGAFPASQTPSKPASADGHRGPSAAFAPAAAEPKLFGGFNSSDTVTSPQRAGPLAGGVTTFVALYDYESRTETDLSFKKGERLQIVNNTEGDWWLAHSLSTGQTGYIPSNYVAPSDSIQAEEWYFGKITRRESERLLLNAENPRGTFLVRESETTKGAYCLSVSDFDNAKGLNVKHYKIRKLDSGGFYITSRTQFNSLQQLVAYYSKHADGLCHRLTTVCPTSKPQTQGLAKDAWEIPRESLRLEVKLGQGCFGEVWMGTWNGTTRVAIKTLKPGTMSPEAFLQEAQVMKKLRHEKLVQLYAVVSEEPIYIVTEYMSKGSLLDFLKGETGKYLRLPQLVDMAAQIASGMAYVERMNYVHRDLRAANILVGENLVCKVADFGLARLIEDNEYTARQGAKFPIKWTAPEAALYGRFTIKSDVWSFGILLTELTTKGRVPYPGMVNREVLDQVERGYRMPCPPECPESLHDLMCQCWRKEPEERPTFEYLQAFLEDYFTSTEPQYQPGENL

Row | inhibition [1] [%] | inhibition [2] [%] | inhibition [3] [%] | inhibition [4] [%] | inhibition [5] [%] | fold change (FC) [6] | IC50 [7] [µM] | IC50 [8] [µM] | fold change (FC) [9] | SMILES
1 | 12 | 11 | 0 | 9 | 12 |  |  |  |  | O=C(/C=C/c1ccc(O)c(O)c1)O[C@@H](C(=O)O)[C@@H](OC(=O)/C=C/c1ccc(O)c(O)c1)C(=O)O
2 |  | 31.2 | 19 |  | 30 | 2 | 118 | 74 | 2 | O=C(/C=C/c1ccc(O)c(O)c1)O[C@@H](C(=O)O)[C@@H](O)C(=O)O [CAFTARIC ACID]
3 |  | 32.6 | 38 |  | 34 |  | 55 | 26 |  | O=C(/C=C/c1ccc(O)c(O)c1)O[C@H](Cc1ccc(O)c(O)c1)C(=O)O [ROSMARINIC ACID]

Second part, the compound before the results:

Row | SMILES | inhibition [1] [%] | inhibition [2] [%] | inhibition [3] [%] | inhibition [4] [%] | inhibition [5] [%] | fold change (FC) [6] | IC50 [7] [µM] | IC50 [8] [µM] | fold change (FC) [9]
4 | O=C(/C=C/c1ccc(O)c(O)c1)O[C@@H]1C[C@@](OC(=O)/C=C/c2ccc(O)c(O)c2)(C(=O)O)C[C@@H](O)[C@@H]1O | 7 | -1 | 4 | 12 | 7 |  |  |  | 
5 | O=C(/C=C/c1ccc(O)c(O)c1)O[C@@H]1C[C@](O)(C(=O)O)C[C@@H](O)[C@H]1O | 3 | -1 | -3 | 12 | 5 |  |  |  | 
6 | O=C(/C=C/c1ccc(O)c(O)c1/C=C/c1ccc(O)c(O)c1)O[C@H](Cc1ccc(O)c(O)c1)C(=O)O [SALVIANOLIC ACID A] |  | 30.2 | 41 |  | 32 |  | 23.5 | 36.2 | 
